Among the test systems are HOP-92; OVCAR-5; DU-145; U-251; SN12C; PC-3; SK-MEL-5; KM12; SNB-75; UO-31; OVCAR-4; Malme-3M; A549; 786-0; SF-295; HL-60; CCRF-CEM; COLO 205; MDA-MB-435.
Holding throughout (assay): DTP human tumour cell line panel, 48 h

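Method: 48-hour compound exposure of cells in 96-well plates, five concentrations, linear interpolation of endpoints. Abbreviation: GI50, concentration required for 50% inhibition of growth.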 Calls of active or inactive are those of the source. Cut-off read from the data, not from the text of the source: active = GI50 up to about 1.1 µM and inactive = higher. Some results are limits rather than exact numbers.

The term GI50 denotes the concentration at which growth is held to half of that of the control. Take `Cc1ccc(NNc2cc(=O)[nH]c(=O)[nH]2)cc1Cl`: the GI50 is 14.4 µM (inactive) in the assay on HOP-92; 73.8 µM (inactive) in the assay on OVCAR-5; 37 µM (inactive) in the assay on DU-145; 16.4 µM (inactive) in the assay on U-251; > 100 µM (inactive) in the assay with SN12C; 22.3 µM (inactive) in the assay with PC-3. Also, the GI50 in the assay on SK-MEL-5 was 73.5 µM (inactive); in the assay on KM12, 27.3 µM (inactive); with SNB-75, > 100 µM (inactive); in the assay on UO-31, 3.25 µM (inactive); in the assay with OVCAR-4 it was 14.7 µM (inactive); in the assay with Malme-3M, 17.8 µM (inactive). The GI50 is 29 µM (inactive) in the assay on A549; 14.6 µM (inactive) in the assay with 786-0; 37.5 µM (inactive) in the assay on SF-295; 3.08 µM (inactive) in the assay on HL-60; 11.1 µM (inactive) in the assay with CCRF-CEM; 16.6 µM (inactive) with COLO 205.
As for `CCOC(=O)c1c(N=C(S)Nc2ccc(Cl)cc2)sc2c1CCN(C)C2`, the GI50 in the assay on OVCAR-5, with DU-145, in the assay with SN12C, in the assay with PC-3, in the assay on SK-MEL-5 and in the assay on KM12 was > 100 µM (inactive) throughout. The GI50 in the assay with UO-31 is 83 µM (inactive); in the assay with A549, > 100 µM (inactive); in the assay on 786-0 it was > 100 µM (inactive); in the assay on SF-295 it was > 100 µM (inactive); in the assay with HL-60, 32.9 µM (inactive); with CCRF-CEM, 26.9 µM (inactive). Further, in the assay on COLO 205, the GI50 is > 100 µM (inactive).
`CC1CC/C(=C\c2ccc(Cl)cc2)c2nc(N)c(C#N)c(-c3ccc(Cl)cc3)c21` (centres undefined): the GI50 is > 100 µM (inactive) with OVCAR-5; 23.9 µM (inactive) in the assay with MDA-MB-435; 17.7 µM (inactive) in the assay with U-251; > 100 µM (inactive) with SN12C; 13.8 µM (inactive) with PC-3; 41.8 µM (inactive) in the assay with SK-MEL-5. The GI50 is 40.2 µM (inactive) in the assay on KM12; 67 µM (inactive) with SNB-75; 27.7 µM (inactive) with UO-31; > 100 µM (inactive) in the assay on OVCAR-4; 13.4 µM (inactive) in the assay on Malme-3M; 34.8 µM (inactive) in the assay on A549. For the same molecule, the GI50 with 786-0 is > 100 µM (inactive); in the assay with SF-295 it was 44.1 µM (inactive); with HL-60, 3.07 µM (inactive); with CCRF-CEM, 23.5 µM (inactive); in the assay on COLO 205, 41.4 µM (inactive).
`COC(=O)NC1(NC(=O)OC)NC(=O)c2cc(OC)c(OC)c(OC)c2N1`: the GI50 in the assay on OVCAR-5 was > 100 µM (inactive); with DU-145, 32 µM (inactive); in the assay with U-251, < 0.01 µM (active); in the assay on SN12C, 41.6 µM (inactive); in the assay with PC-3, 12.4 µM (inactive); with SK-MEL-5 it was 11 µM (inactive). Moreover, the GI50 with KM12 was 7.19 µM (inactive); with SNB-75, 13.7 µM (inactive); with UO-31, 46.2 µM (inactive); in the assay on OVCAR-4, > 100 µM (inactive); in the assay with Malme-3M it was 1.33 µM (inactive); in the assay on A549, < 0.01 µM (active). Besides, the GI50 in the assay on 786-0 is 39 µM (inactive); in the assay with SF-295, 12.4 µM (inactive); in the assay on HL-60, 8.15 µM (inactive); with CCRF-CEM, 82 µM (inactive); in the assay on COLO 205, 18.7 µM (inactive).
On to `CC1=CP(=O)(OC(C)C)C=C(C)C1=C(Cl)Cl` (centres undefined), for which the GI50 is 16.9 µM (inactive) with HOP-92; > 100 µM (inactive) in the assay with OVCAR-5; 35.7 µM (inactive) in the assay on U-251; 36.1 µM (inactive) in the assay with SN12C; 30.8 µM (inactive) in the assay with SK-MEL-5; 22.5 µM (inactive) in the assay with KM12. The GI50 with SNB-75 was > 100 µM (inactive); in the assay on UO-31, 13.1 µM (inactive); with OVCAR-4, > 100 µM (inactive); with Malme-3M it was > 100 µM (inactive); with A549, 26.4 µM (inactive); in the assay on 786-0, > 100 µM (inactive). The GI50 in the assay on SF-295 is 45.2 µM (inactive); with HL-60, 34.9 µM (inactive); with CCRF-CEM, 54 µM (inactive); in the assay on COLO 205 it was 18.2 µM (inactive).
In the case of `CC1CC(=O)NC2CC1C2(C)C` (centres undefined), the GI50 in the assay on HOP-92, in the assay on OVCAR-5, with MDA-MB-435, in the assay with DU-145, in the assay on U-251 and in the assay on SN12C was > 100 µM (inactive) in each case. In addition, the GI50 with SK-MEL-5, in the assay on KM12, in the assay on SNB-75, in the assay with UO-31, in the assay on OVCAR-4 and in the assay on Malme-3M was > 100 µM (inactive) each time. Besides, the GI50 in the assay on A549, with 786-0, in the assay with SF-295, in the assay with HL-60, with CCRF-CEM and in the assay on COLO 205 was > 100 µM (inactive) in each case.
As for `C[Si]1(C)C(c2ccccc2)=CC2C(c3ccccc3)(c3ccccc3)OC21c1ccccc1` (centres undefined), the GI50 with HOP-92 is 48.5 µM (inactive); in the assay with OVCAR-5, > 100 µM (inactive); in the assay on U-251, > 100 µM (inactive); in the assay on SN12C, > 100 µM (inactive); in the assay on SK-MEL-5, 63.7 µM (inactive); with KM12 it was > 100 µM (inactive). In addition, the GI50 in the assay on SNB-75 is > 100 µM (inactive); in the assay on UO-31, > 100 µM (inactive); in the assay on OVCAR-4, > 100 µM (inactive); in the assay on Malme-3M, 33.6 µM (inactive); with A549 it was > 100 µM (inactive); with 786-0, > 100 µM (inactive). Also, the GI50 was 66.8 µM (inactive) with SF-295, 28.7 µM (inactive) with HL-60, > 100 µM (inactive) in the assay on CCRF-CEM and > 100 µM (inactive) with COLO 205.
Take `CCC1=C(C)C(=O)N/C1=C\c1[nH]c(C)c([C@H](C)CCN)c1C`: the GI50 is 14.6 µM (inactive) with HOP-92; 17.5 µM (inactive) in the assay with OVCAR-5; 15.3 µM (inactive) in the assay on MDA-MB-435; 16.9 µM (inactive) with DU-145; 15.1 µM (inactive) in the assay with U-251; 16 µM (inactive) in the assay on SN12C. Also, the GI50 in the assay with SK-MEL-5 was 17.2 µM (inactive); in the assay with KM12, 15.7 µM (inactive); with SNB-75, 10.1 µM (inactive); in the assay on UO-31, 15.8 µM (inactive); in the assay with OVCAR-4, 12.8 µM (inactive); in the assay on Malme-3M it was 18.7 µM (inactive). In addition, the GI50 is 16.1 µM (inactive) in the assay on A549; 14.7 µM (inactive) in the assay with 786-0; 16.5 µM (inactive) in the assay on SF-295; 10 µM (inactive) with HL-60; 23 µM (inactive) in the assay with CCRF-CEM; 16.4 µM (inactive) in the assay on COLO 205.
Regarding `O=c1[nH]nc(-c2ccccc2)n1Nc1ccccc1`, the GI50 in the assay with HOP-92, in the assay on OVCAR-5, with MDA-MB-435, with DU-145, with U-251 and in the assay on SN12C was > 100 µM (inactive) in each case. Moreover, the GI50 with SK-MEL-5, with KM12, with SNB-75, with UO-31, in the assay on OVCAR-4 and in the assay on Malme-3M was > 100 µM (inactive) in each case. In addition, the GI50 in the assay with A549, in the assay on 786-0, in the assay with SF-295, in the assay with HL-60, with CCRF-CEM and in the assay with COLO 205 was > 100 µM (inactive) each time.
As to `O=C1CCCc2ccc3c(c21)CC1(Cc2cc4c(cc2C1)CCCC4)C3`, the GI50 with HOP-92 was 12.9 µM (inactive); in the assay on OVCAR-5, 27.4 µM (inactive); in the assay with MDA-MB-435 it was 19.6 µM (inactive); in the assay on DU-145, 20.9 µM (inactive); in the assay on U-251, 20.4 µM (inactive); in the assay on SN12C, 19.1 µM (inactive). In addition, the GI50 in the assay with SK-MEL-5 is 12.6 µM (inactive); with KM12 it was 22.2 µM (inactive); with SNB-75, 20.7 µM (inactive); in the assay with UO-31 it was 15.7 µM (inactive); with OVCAR-4 it was 22.1 µM (inactive); with Malme-3M, 18.3 µM (inactive). The GI50 in the assay on A549 is 22 µM (inactive); in the assay on 786-0, 18.1 µM (inactive); in the assay on SF-295, 29.8 µM (inactive); with HL-60, 6.05 µM (inactive); in the assay with CCRF-CEM it was 3.94 µM (inactive); in the assay with COLO 205 it was 14.8 µM (inactive).
Take `CC[n+]1[b-](C(C)(C)C)n(/N=C(\C)C(C)(C)C)[b-](C(C)(C)C)[n+]1CC`: the GI50 in the assay with OVCAR-5, with MDA-MB-435, with U-251, in the assay with SN12C, in the assay with PC-3 and in the assay on SK-MEL-5 was > 100 µM (inactive) throughout. Further, the GI50 in the assay with KM12, in the assay on SNB-75, in the assay on UO-31, with OVCAR-4, in the assay on Malme-3M and in the assay on A549 was > 100 µM (inactive) in each case. Moreover, the GI50 with 786-0, in the assay on SF-295 and in the assay with CCRF-CEM was > 100 µM (inactive) throughout.
For the molecule `Cc1ccc(/C(=C/C=C(C#N)C#N)Sc2cc(Cl)ccc2Cl)cc1`, the GI50 in the assay on OVCAR-5 was 5.02 µM (inactive); in the assay on MDA-MB-435, 2.43 µM (inactive); in the assay with DU-145 it was 3.4 µM (inactive); in the assay on U-251, 3.21 µM (inactive); in the assay with SN12C, 3.22 µM (inactive); in the assay with SK-MEL-5, 12.1 µM (inactive). Besides, the GI50 was 4.78 µM (inactive) in the assay on KM12; 17 µM (inactive) with SNB-75; 8.81 µM (inactive) in the assay on UO-31; 6.31 µM (inactive) in the assay with OVCAR-4; 16.9 µM (inactive) in the assay with Malme-3M; 9.98 µM (inactive) in the assay with A549. For the same molecule, the results for the GI50 with 786-0, in the assay on SF-295 and with COLO 205 were 1.92 µM (inactive), 3.43 µM (inactive) and 4.86 µM (inactive), respectively.

Source of the values: ChEMBL document CHEMBL1201862, “PubChem BioAssay data set” (2004).
